The compounds below were run on Mus musculus (assay: Analgesic activity in sc dosed albino dd mouse by tail pressure stimuli method).
Assay type: functional
Br.CN1C[C@@H]2Cc3ccc(O)cc3[C@@](C)(C2)C1 gave an ED50 of 8.4 mg/kg.
Br.C[C@H]1[C@H]2Cc3ccc(O)cc3[C@]1(C)CN(C)C2 was tested, and the ED50 was 28 mg/kg.
Work on Br.C[C@@H]1[C@H]2Cc3ccc(O)cc3[C@]1(C)CN(C)C2 yielded an ED50 of 32.8 mg/kg.
CN1C[C@@H]2Cc3ccccc3[C@@](C)(C2)C1.Cl showed an ED50 greater than 50 mg/kg.
COc1ccc2c3c1O[C@H]1[C@@H](O)C=C[C@H]4[C@@H](C2)N(C)CC[C@@]341.COc1ccc2c3c1O[C@H]1[C@@H](O)C=C[C@H]4[C@@H](C2)N(C)CC[C@@]341.O.O=P(O)(O)O.O=P(O)(O)O [CODEINE PHOSPHATE] gave an ED50 of 9.2 mg/kg.
